Read-outs that look alike come from different tables or passages of the source.
Columns and labels:
murine norovirus [1] = settings: highest concentration tested of 60% by volume, non-living surfaces, Magulski et al.; cited from earlier work
murine norovirus [2] = assay: Modified test EN 1500, hygienic disinfection of the hands of test persons contaminated with virus; type: in vivo; settings: 5 test persons
Description: Method B:: Modified test EN 1500 "Hygienic disinfection of the hands"
The test is based upon EN 1500 (practical test method for the hygienic disinfection of the hands).
In the tests, the hands of test persons are contaminated with 3 ml of murine norovirus, namely both the hands of the test persons of the reference group and the hands of the test persons of the test group. A sample is then taken (1 min) before the disinfection. After that, the test persons of each group disinfect their hands with disinfection agent. The test persons of the reference group disinfect twice with 3 ml of a reference product in each case, the reference product being allowed to act for 30 sec and rubbed in after each disinfection. The test persons of the test group instead disinfect twice with 3 ml of the disinfection agent to be tested. After that, a sample is taken […] (1 min), both in the reference group and in the test group.
The test persons of the respective group are then swapped over in a second test.

[3] = test system: murine norovirus, strain S 99 Berlin; assay: Quantitative suspension test of virucidal effect according to EN 14476 (low stressing); settings: for log reduction at 0.7 %: Norwalk virus, read-out: reduction factor; for log10-TCID50 / 0·1 ml after ... min murine norovirus: reference inactivation, PBS
Description: Method A:Quantitative suspension test of virucidal effect according to EN 14476: Murine norovirus (low stressing)
Methodology:EN 14476:2005-04/A1:2006-10 and PrEN 14476:2011: Chemical disinfection agents and antiseptics - Quantitative suspension test of virucidal effect for chemical disinfection agents and antiseptics used in human medicine, Test methods and requirements (phase 2, stage 1)
In order to achieve the concentration of 97%, 0·1 ml of the virus, 0.2 ml of the 5-fold concentrated stressing substance and 9.7 ml of the product are mixed. After the termination of the exposure time, the effect of the disinfection agent is stopped by dilution (or gel filtration) and a series of dilutions in accordance with the progression 1:10/ 1:100 / 1:1,000 etc. is applied in order to determine the residual virus content. The titration is carried out in the microtitre system on 96-well plates.
Titration method: • Virus titration on cells as monolayers in 96-well microtitration plates. 0.5ml of product test solution is diluted with 4.5 ml of ice-cold DMEM + 2% FBS to a dilution of 10^-8. 100 µl of each dilution was pipetted into 6 wells of the microtitration plate. Method of terminating the effect of the product and reducing the cytotoxicity: • Gel filtration with MicroSpin columns and dilution to 10^-4 within 10 sec with ice-cold DMEM + 2% FBS
The TCID50 was calculated in accordance with the method of Spearman and Kärber. m = xk + d/2−d∑pi [formula] • m = negative logarithm of the titre in relation to the test volume • Xk = logarithm of the smallest dilution stage in which all the test objects react positively • d = logarithm of the dilution factor • pi = observed reaction rate
RF = log(viruscontrol)−log(testproduct) [formula] KRF = sqrt(((2Sm(control)))^2 + ((2Sm(residualtitre)))^2) [formula] • KRF = 95% confidence interval of the reduction factor • Sm = standard deviation of the logarithmized titre

RAW cells ATCC TIB-71 = assay: Cytotoxicity control (CD50) of the EN 14476 suspension test; design: unit not given beside the values; settings: reference inactivation, PBS
Description: Virus control: The virus titre for the murine norovirus amounted to 7.50 ± 0.47 TCID50 / 0·1 ml and thus to 8.50 ± 0.47 TCID50 / ml. The demonstrable titre reduction thus amounted to ≥ 4.00 lg^10. […] Reference The reduction factor of 0.7% formaldehyde amounted to 2·33 log^10 inactivation after 30 min exposure time and to 3.17 log^10 after 60 min exposure time.

## CC(C)O [isopropanol]
Murine norovirus [1]
  effectiveness compared with ethanol and n-propanol: three decadic levels below the effectiveness of ethanol and n-propanol

## CCO [Ethanol 70% w/w, Ethanol]
Murine norovirus [2]; 2 x 30 s with 3 ml each
  Average after disinfection: 3.02 log TCID50/ml
Murine norovirus [2]; baseline before disinfection
  Average before disinfection: 5.6 log TCID50/ml
Murine norovirus [2]; reduction factor, 2 x 30 s with 3 ml each
  RF: 2.58 log TCID50/ml

## C=O [Formaldehyde 0·7% (V/V), Formaldehyde]
[3]; 0.5 h
  log reduction at 0.7 %: 2.33
[3]; 1 h
  log reduction at 0.7 %: 3.17
[3]; residual titre after 5 min
  log10-TCID50 / 0·1 ml after ... min murine norovirus: 6.33 ± 0.33 log10-TCID50 / 0·1 ml
[3]; residual titre after 15 min
  log10-TCID50 / 0·1 ml after ... min murine norovirus: 5.67 ± 0.54 log10-TCID50 / 0·1 ml
[3]; residual titre after 30 min
  log10-TCID50 / 0·1 ml after ... min murine norovirus: 5.17 ± 0.56 log10-TCID50 / 0·1 ml
[3]; residual titre after 60 min
  log10-TCID50 / 0·1 ml after ... min murine norovirus: 4.33 ± 0.33 log10-TCID50 / 0·1 ml
RAW cells ATCC TIB-71
  CD50: ≤ 3.5
